From US20060063179A1, “MIFL- a new partner gene of MLL and methods of use thereof” (priority 2004, published 2006)

What follows are molecules tested against human DNA topoisomerase II (Homo sapiens, UniProt P11388) (assay: DNA topoisomerase II in vitro cleavage assay). Conditions: singly 5' end-labeled MLL intron 8 and MIFL intron 8 substrates; 147 nM enzyme, 1 mM ATP, 20 μM drug, 10 min 37° C.
Type: biochemical
Description: FIGS. 8A-8D provide images of autoradiographs depicting MLL bcr positions 5382-5570 (FIGS. 8A and 8B) or positions 1387 to 1424 in MIFL intron 8 (FIGS. 8C and 8D) identified utilizing topoisomerase II in vitro cleavage assays. Autoradiographs show cleavage products after 10 minute incubation at 37° C. of 25 ng (30,000 cpm) singly 5' end-labeled DNA with 147 nM human DNA topoisomerase II, 1 mM ATP and, where indicated, 20 μM etoposide, etoposide catechol, etoposide quinone or doxorubicin (FIGS. 8A and 8C), or lower doxorubicin concentrations (FIGS. 8B and 8D). Specified reactions were incubated for an additional 10 minutes at 75° C. before trapping the covalent complexes (FIGS. 8A and 8C). The 5' side (-1 position) of the cleavage sites are shown by the dashes at far right. Fragments of the MLL bcr spanning positions 5382-5570 in intron 8 or fragments of MIFL spanning positions 1309-1479 in intron 8 were subcloned into BamHI-NotI sites of TOPO pCR2.1 (Invitrogen). Twenty micrograms of plasmid DNA first was treated with 400 units T4 DNA ligase (New England Biolabs; Beverly, Mass.) for 1 hour to ensure that the substrates were not nicked. […] Calf intestinal phosphatase was inactivated in 5 mM EDTA (pH 8.0) and the DNA was PCI-extracted and ethanol precipitated. The DNA was then 5' end-labeled with [γ-^32P]ATP (Amersham; Arlington Heights, Ill.) and T4 polynucleotide kinase (New England Biolabs) as described (Felix et al. (1995) Cancer Res., 55:4287-92). Alternatively, to prepare cold substrate DNA, 20 μg of BamHI/NotI-digested, dephosphorylated plasmid were phosphorylated with 10 μM ATP (Boehringer Mannheim; Indianapolis, Ind.) in otherwise similar reactions. […] DNA recovery was quantitated by optical density measurement and scintillation counting. […] Cleavage products were visualized by autoradiography and quantitated using a PhosphorImager and ImageQuant software (Molecular Dynamics; Sunnyvale, Calif.).

Chain of human DNA topoisomerase II (P11388 whole entry): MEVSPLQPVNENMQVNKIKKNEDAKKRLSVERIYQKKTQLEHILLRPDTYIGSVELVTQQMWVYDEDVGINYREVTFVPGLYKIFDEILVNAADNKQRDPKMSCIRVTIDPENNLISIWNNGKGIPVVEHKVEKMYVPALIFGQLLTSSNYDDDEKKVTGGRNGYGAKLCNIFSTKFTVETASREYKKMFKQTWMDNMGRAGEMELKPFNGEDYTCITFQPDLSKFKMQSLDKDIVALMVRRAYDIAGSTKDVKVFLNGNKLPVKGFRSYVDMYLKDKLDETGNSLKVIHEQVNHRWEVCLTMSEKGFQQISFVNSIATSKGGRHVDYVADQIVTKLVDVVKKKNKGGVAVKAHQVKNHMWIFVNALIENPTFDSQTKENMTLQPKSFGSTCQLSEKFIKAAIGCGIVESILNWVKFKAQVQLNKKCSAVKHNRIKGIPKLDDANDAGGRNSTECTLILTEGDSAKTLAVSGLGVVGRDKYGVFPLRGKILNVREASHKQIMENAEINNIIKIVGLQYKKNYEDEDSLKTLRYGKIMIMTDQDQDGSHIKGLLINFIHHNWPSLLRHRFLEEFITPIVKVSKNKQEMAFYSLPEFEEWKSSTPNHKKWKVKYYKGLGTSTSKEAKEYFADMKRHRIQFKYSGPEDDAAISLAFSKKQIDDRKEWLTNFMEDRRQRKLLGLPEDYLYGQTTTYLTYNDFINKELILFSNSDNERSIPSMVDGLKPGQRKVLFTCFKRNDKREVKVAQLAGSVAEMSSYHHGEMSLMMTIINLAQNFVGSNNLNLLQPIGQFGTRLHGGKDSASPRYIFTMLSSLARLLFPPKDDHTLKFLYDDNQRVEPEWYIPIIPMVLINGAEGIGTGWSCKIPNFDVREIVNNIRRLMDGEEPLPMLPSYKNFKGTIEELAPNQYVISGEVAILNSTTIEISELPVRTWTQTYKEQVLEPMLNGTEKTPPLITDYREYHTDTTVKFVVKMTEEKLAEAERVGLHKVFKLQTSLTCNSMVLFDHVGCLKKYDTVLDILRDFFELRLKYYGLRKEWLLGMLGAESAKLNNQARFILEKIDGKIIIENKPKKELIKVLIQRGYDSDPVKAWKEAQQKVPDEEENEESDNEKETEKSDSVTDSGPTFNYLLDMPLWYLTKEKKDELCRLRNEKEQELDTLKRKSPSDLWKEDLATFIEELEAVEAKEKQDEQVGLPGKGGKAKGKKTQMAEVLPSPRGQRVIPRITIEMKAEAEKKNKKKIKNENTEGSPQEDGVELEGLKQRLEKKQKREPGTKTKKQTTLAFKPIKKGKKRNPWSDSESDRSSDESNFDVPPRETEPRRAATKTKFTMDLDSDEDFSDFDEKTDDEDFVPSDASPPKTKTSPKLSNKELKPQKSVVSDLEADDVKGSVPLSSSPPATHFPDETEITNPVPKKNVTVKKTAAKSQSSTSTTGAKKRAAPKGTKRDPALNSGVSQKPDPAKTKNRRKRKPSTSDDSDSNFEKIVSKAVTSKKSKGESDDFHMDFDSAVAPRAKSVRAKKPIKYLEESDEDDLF

| Compound | formation of DNA topoisomerase II cleavage complexes at or near the translocation breakpoints |
| --- | --- |
| COc1cccc2c1C(=O)c1c(O)c3c(c(O)c1C2=O)C[C@@](O)(C(=O)CO)C[C@@H]3O[C@H]1C[C@H](N)[C@H](O)[C@H](C)O1 [dox, doxorubicin] | marginal activity |
| COC1=CC(C2c3cc4c(cc3C(O[C@@H]3O[C@@H]5COC(C)O[C@H]5[C@H](O)[C@H]3O)C3COC(=O)C23)OCO4)=CC(=O)C1=O (stereo partly drawn) [etoposide quinone] | increased the formation of DNA topoisomerase II cleavage complexes |
| COc1cc([C@@H]2c3cc4c(cc3[C@@H](O[C@@H]3O[C@@H]5CO[C@@H](C)O[C@H]5[C@H](O)[C@H]3O)[C@H]3COC(=O)[C@H]23)OCO4)cc(OC)c1O [etoposide] | increased the formation of DNA topoisomerase II cleavage complexes |
